Assay results from ChEMBL document CHEMBL3045111, “Synthesis and herbicidal activities of novel 3-(substituted benzyloxy or phenoxy)-6-methyl-4-(3-trifluoromethylphenyl)pyridazine derivatives” (2012).
Active and inactive are the calls of the source. No cut-off for these calls is given here.

Tests used:
Spirodela polyrhiza [1] = experiment: Bleaching herbicidal activity in Spirodela polyrhiza fronds cultured in compound-containing in medium assessed as chlorophyll inhibition at 10 ug/ml after 7 days; type: functional; details: 168 h
Amaranthus retroflexus [2] = experiment: Post-emergence herbicidal activity against one-leaf stage Amaranthus retroflexus under greenhouse condition at 300 g /ha measured after 24 days by spray method; type: functional; details: 576 h, read-out: GI
Amaranthus retroflexus [3] = experiment: Post-emergence herbicidal activity against one-leaf stage Amaranthus retroflexus under greenhouse condition assessed as complete bleaching of leaves at 30 g /ha measured after 24 days by spray method; type: functional, organism-based
[4] = system: Brassica rapa subsp. oleifera; experiment: Post-emergence herbicidal activity against one-leaf stage Brassica rapa subsp. oleifera under greenhouse condition at 750 g /ha measured after 24 days by spray method; type: functional; details: 576 h, read-out: GI
[5] = system: Brassica rapa subsp. oleifera; experiment: Post-emergence herbicidal activity against one-leaf stage Brassica rapa subsp. oleifera under greenhouse condition assessed as complete bleaching of leaves at 7.5 g /ha measured after 24 days by spray method; type: functional, organism-based
Digitaria [6] = experiment: Post-emergence herbicidal activity against one-leaf stage of Digitaria adscendens under greenhouse condition at 750 g /ha measured after 24 days by spray method; type: functional; details: in Digitaria adscendens, 576 h, read-out: GI
[7] = system: Brassica rapa subsp. oleifera; experiment: Post-emergence herbicidal activity against one-leaf stage Brassica rapa subsp. oleifera under greenhouse condition at 150 g /ha measured after 24 days by spray method; type: functional; details: 576 h, read-out: GI
Amaranthus retroflexus [8] = experiment: Pre-emergence herbicidal activity against Amaranthus retroflexus under greenhouse condition at 750 g /ha measured after 24 days by spray method; type: functional; details: 576 h, read-out: GI
[9] = system: Brassica rapa subsp. oleifera; experiment: Post-emergence herbicidal activity against one-leaf stage Brassica rapa subsp. oleifera under greenhouse condition assessed as complete bleaching of leaves at 15 g /ha measured after 24 days by spray method; type: functional, organism-based
Amaranthus retroflexus [10] = experiment: Post-emergence herbicidal activity against one-leaf stage Amaranthus retroflexus under greenhouse condition at 15 g /ha measured after 24 days by spray method; type: functional; details: 576 h, read-out: GI
Amaranthus retroflexus [11] = experiment: Post-emergence herbicidal activity against one-leaf stage of Amaranthus retroflexus under greenhouse condition at 750 g /ha measured after 24 days by spray method; type: functional; details: 576 h, read-out: GI
Amaranthus retroflexus [12] = experiment: Post-emergence herbicidal activity against one-leaf stage Amaranthus retroflexus under greenhouse condition at 7.5 g /ha measured after 24 days by spray method; type: functional; details: 576 h, read-out: GI
Amaranthus retroflexus [13] = experiment: Post-emergence herbicidal activity against one-leaf stage Amaranthus retroflexus under greenhouse condition assessed as complete bleaching of leaves at 600 g /ha measured after 24 days by spray method; type: functional, organism-based
Amaranthus retroflexus [14] = experiment: Post-emergence herbicidal activity against one-leaf stage Amaranthus retroflexus under greenhouse condition at 30 g /ha measured after 24 days by spray method; type: functional; details: 576 h, read-out: GI
[15] = system: Brassica rapa subsp. oleifera; experiment: Pre-emergence herbicidal activity against Brassica rapa subsp. oleifera under greenhouse condition at 750 g /ha measured after 24 days by spray method; type: functional; details: 576 h, read-out: GI
Amaranthus retroflexus [16] = experiment: Post-emergence herbicidal activity against one-leaf stage Amaranthus retroflexus under greenhouse condition assessed as complete bleaching of leaves at 75 g /ha measured after 24 days by spray method; type: functional, organism-based
Amaranthus retroflexus [17] = experiment: Post-emergence herbicidal activity against one-leaf stage Amaranthus retroflexus under greenhouse condition at 60 g /ha measured after 24 days by spray method; type: functional; details: 576 h, read-out: GI
[18] = system: Brassica rapa subsp. oleifera; experiment: Post-emergence herbicidal activity against one-leaf stage Brassica rapa subsp. oleifera under greenhouse condition at 300 g /ha measured after 24 days by spray method; type: functional; details: 576 h, read-out: GI
Digitaria [19] = experiment: Pre-emergence herbicidal activity against Digitaria adscendens under greenhouse condition at 750 g /ha measured after 24 days by spray method; type: functional; details: in Digitaria adscendens, 576 h, read-out: GI
[20] = system: Brassica rapa subsp. oleifera; experiment: Post-emergence herbicidal activity against one-leaf stage Brassica rapa subsp. oleifera under greenhouse condition at 15 g /ha measured after 24 days by spray method; type: functional; details: 576 h, read-out: GI
Amaranthus retroflexus [21] = experiment: Post-emergence herbicidal activity against one-leaf stage Amaranthus retroflexus under greenhouse condition assessed as complete bleaching of leaves at 15 g /ha measured after 24 days by spray method; type: functional, organism-based
[22] = system: Brassica rapa subsp. oleifera; experiment: Post-emergence herbicidal activity against one-leaf stage Brassica rapa subsp. oleifera under greenhouse condition at 600 g /ha measured after 24 days by spray method; type: functional; details: 576 h, read-out: GI
[23] = system: Brassica rapa subsp. oleifera; experiment: Post-emergence herbicidal activity against one-leaf stage Brassica rapa subsp. oleifera under greenhouse condition at 30 g /ha measured after 24 days by spray method; type: functional; details: 576 h, read-out: GI
Echinochloa crus-galli [24] = experiment: Post-emergence herbicidal activity against one-leaf stage of Echinochloa crus-galli (barnyard grass) under greenhouse condition at 750 g /ha measured after 24 days by spray method; type: functional; details: 576 h, read-out: GI
[25] = system: Brassica rapa subsp. oleifera; experiment: Post-emergence herbicidal activity against one-leaf stage Brassica rapa subsp. oleifera under greenhouse condition at 7.5 g /ha measured after 24 days by spray method; type: functional; details: 576 h, read-out: GI
Amaranthus retroflexus [26] = experiment: Post-emergence herbicidal activity against one-leaf stage Amaranthus retroflexus under greenhouse condition at 150 g /ha measured after 24 days by spray method; type: functional; details: 576 h, read-out: GI
[27] = system: Brassica rapa subsp. oleifera; experiment: Post-emergence herbicidal activity against one-leaf stage Brassica rapa subsp. oleifera under greenhouse condition at 60 g /ha measured after 24 days by spray method; type: functional; details: 576 h, read-out: GI
[28] = system: Brassica rapa subsp. oleifera; experiment: Post-emergence herbicidal activity against one-leaf stage Brassica rapa subsp. oleifera under greenhouse condition assessed as complete bleaching of leaves at 60 g /ha measured after 24 days by spray method; type: functional, organism-based
Amaranthus retroflexus [29] = experiment: Post-emergence herbicidal activity against one-leaf stage Amaranthus retroflexus under greenhouse condition assessed as complete bleaching of leaves at 7.5 g /ha measured after 24 days by spray method; type: functional, organism-based
Amaranthus retroflexus [30] = experiment: Post-emergence herbicidal activity against one-leaf stage Amaranthus retroflexus under greenhouse condition assessed as complete bleaching of leaves at 300 g /ha measured after 24 days by spray method; type: functional, organism-based
[31] = system: Brassica rapa subsp. oleifera; experiment: Post-emergence herbicidal activity against one-leaf stage Brassica rapa subsp. oleifera under greenhouse condition assessed as complete bleaching of leaves at 600 g /ha measured after 24 days by spray method; type: functional, organism-based
Amaranthus retroflexus [32] = experiment: Post-emergence herbicidal activity against one-leaf stage Amaranthus retroflexus under greenhouse condition at 600 g /ha measured after 24 days by spray method; type: functional; details: 576 h, read-out: GI
[33] = system: Brassica rapa subsp. oleifera; experiment: Post-emergence herbicidal activity against one-leaf stage Brassica rapa subsp. oleifera under greenhouse condition assessed as complete bleaching of leaves at 150 g /ha measured after 24 days by spray method; type: functional, organism-based
[34] = system: Brassica rapa subsp. oleifera; experiment: Post-emergence herbicidal activity against one-leaf stage Brassica rapa subsp. oleifera under greenhouse condition assessed as complete bleaching of leaves at 75 g /ha measured after 24 days by spray method; type: functional, organism-based
Amaranthus retroflexus [35] = experiment: Post-emergence herbicidal activity against one-leaf stage Amaranthus retroflexus under greenhouse condition assessed as complete bleaching of leaves at 60 g /ha measured after 24 days by spray method; type: functional, organism-based
Spirodela polyrhiza [36] = experiment: Bleaching herbicidal activity in Spirodela polyrhiza fronds cultured in compound-containing in medium assessed as chlorophyll inhibition at 1 ug/ml after 7 days; type: functional; details: 168 h
[37] = system: Brassica rapa subsp. oleifera; experiment: Post-emergence herbicidal activity against one-leaf stage Brassica rapa subsp. oleifera under greenhouse condition assessed as complete bleaching of leaves at 30 g /ha measured after 24 days by spray method; type: functional, organism-based
Amaranthus retroflexus [38] = experiment: Post-emergence herbicidal activity against one-leaf stage Amaranthus retroflexus under greenhouse condition assessed as complete bleaching of leaves at 150 g /ha measured after 24 days by spray method; type: functional, organism-based
Echinochloa crus-galli [39] = experiment: Pre-emergence herbicidal activity against Echinochloa crus-galli (barnyard grass) under greenhouse condition at 750 g /ha measured after 24 days by spray method; type: functional; details: 576 h, read-out: GI
Amaranthus retroflexus [40] = experiment: Post-emergence herbicidal activity against one-leaf stage Amaranthus retroflexus under greenhouse condition at 75 g /ha measured after 24 days by spray method; type: functional; details: 576 h, read-out: GI
[41] = system: Brassica rapa subsp. oleifera; experiment: Post-emergence herbicidal activity against one-leaf stage Brassica rapa subsp. oleifera under greenhouse condition assessed as complete bleaching of leaves at 300 g /ha measured after 24 days by spray method; type: functional, organism-based
[42] = system: Brassica rapa subsp. oleifera; experiment: Post-emergence herbicidal activity against one-leaf stage Brassica rapa subsp. oleifera under greenhouse condition at 75 g /ha measured after 24 days by spray method; type: functional; details: 576 h, read-out: GI

Question: For Cc1cc(-c2cccc(C(F)(F)F)c2)c(Oc2ccc(Br)cc2)nn1, which inhibition at 10 µg/mL (Spirodela polyrhiza [1]) is on record?
Answer: The inhibition at 10 µg/mL was 90%.

Question: And the inhibition of growth at 300 g/ha (Amaranthus retroflexus [2])?
Answer: Its inhibition of growth at 300 g/ha is 100%.

Question: What about the Activity (Amaranthus retroflexus [3]) of the same molecule?
Answer: The Activity was “Active”.

Question: What about the inhibition of growth at 750 g/ha [4] of the same molecule?
Answer: The inhibition of growth at 750 g/ha was 94%.

Question: What about the Activity [5] of the same molecule?
Answer: Its Activity is “Active”.

Question: What about the inhibition of growth at 750 g/ha (Digitaria [6]) of the same molecule?
Answer: The inhibition of growth at 750 g/ha was 93%.

Question: What about the inhibition of growth at 150 g/ha [7] of the same molecule?
Answer: Its inhibition of growth at 150 g/ha is 100%.

Question: What about the inhibition of growth at 750 g/ha (Amaranthus retroflexus [8]) of the same molecule?
Answer: The inhibition of growth at 750 g/ha was 94%.

Question: What about the Activity [9] of the same molecule?
Answer: The Activity was “Active”.

Question: What about the inhibition of growth at 15 g/ha (Amaranthus retroflexus [10]) of the same molecule?
Answer: Its inhibition of growth at 15 g/ha is 28%.

Question: And the inhibition of growth at 750 g/ha (Amaranthus retroflexus [11])?
Answer: The inhibition of growth at 750 g/ha was 100%.

Question: And the inhibition of growth at 7.5 g/ha (Amaranthus retroflexus [12])?
Answer: The inhibition of growth at 7.5 g/ha was 25%.

Question: What about the Activity (Amaranthus retroflexus [13]) of the same molecule?
Answer: The Activity was “Active”.

Question: And the inhibition of growth at 30 g/ha (Amaranthus retroflexus [14])?
Answer: Its inhibition of growth at 30 g/ha is 35%.

Question: What about the inhibition of growth at 750 g/ha [15] of the same molecule?
Answer: The inhibition of growth at 750 g/ha was 61%.

Question: And the Activity (Amaranthus retroflexus [16])?
Answer: Its Activity is “Active”.

Question: What about the inhibition of growth at 60 g/ha (Amaranthus retroflexus [17]) of the same molecule?
Answer: Its inhibition of growth at 60 g/ha is 51%.

Question: And the inhibition of growth at 300 g/ha [18]?
Answer: The inhibition of growth at 300 g/ha was 100%.

Question: What about the inhibition of growth at 750 g/ha (Digitaria [19]) of the same molecule?
Answer: The inhibition of growth at 750 g/ha was 64%.

Question: And the inhibition of growth at 15 g/ha [20]?
Answer: Its inhibition of growth at 15 g/ha is 94%.

Question: And the Activity (Amaranthus retroflexus [21])?
Answer: The Activity was “Active”.

Question: What about the inhibition of growth at 600 g/ha [22] of the same molecule?
Answer: Its inhibition of growth at 600 g/ha is 100%.

Question: What about the inhibition of growth at 30 g/ha [23] of the same molecule?
Answer: Its inhibition of growth at 30 g/ha is 100%.

Question: What about the inhibition of growth at 750 g/ha (Echinochloa crus-galli [24]) of the same molecule?
Answer: The inhibition of growth at 750 g/ha was 60%.

Question: What about the inhibition of growth at 7.5 g/ha [25] of the same molecule?
Answer: Its inhibition of growth at 7.5 g/ha is 68%.

Question: What about the inhibition of growth at 150 g/ha (Amaranthus retroflexus [26]) of the same molecule?
Answer: The inhibition of growth at 150 g/ha was 100%.

Question: And the inhibition of growth at 60 g/ha [27]?
Answer: The inhibition of growth at 60 g/ha was 100%.

Question: And the Activity [28]?
Answer: The Activity was “Active”.

Question: And the Activity (Amaranthus retroflexus [29])?
Answer: Its Activity is “Active”.

Question: What about the Activity (Amaranthus retroflexus [30]) of the same molecule?
Answer: The Activity was “Active”.

Question: What about the Activity [31] of the same molecule?
Answer: The Activity was “Active”.

Question: And the inhibition of growth at 600 g/ha (Amaranthus retroflexus [32])?
Answer: Its inhibition of growth at 600 g/ha is 100%.

Question: And the Activity [33]?
Answer: The Activity was “Active”.

Question: And the Activity [34]?
Answer: Its Activity is “Active”.

Question: What about the Activity (Amaranthus retroflexus [35]) of the same molecule?
Answer: The Activity was “Active”.

Question: What about the inhibition at 1 µg/mL (Spirodela polyrhiza [36]) of the same molecule?
Answer: The inhibition at 1 µg/mL was 80%.

Question: And the Activity [37]?
Answer: The Activity was “Active”.

Question: And the Activity (Amaranthus retroflexus [38])?
Answer: Its Activity is “Active”.

Question: And the inhibition of growth at 750 g/ha (Echinochloa crus-galli [39])?
Answer: The inhibition of growth at 750 g/ha was 60%.

Question: What about the inhibition of growth at 75 g/ha (Amaranthus retroflexus [40]) of the same molecule?
Answer: Its inhibition of growth at 75 g/ha is 88%.

Question: And the Activity [41]?
Answer: Its Activity is “Active”.

Question: What about the inhibition of growth at 75 g/ha [42] of the same molecule?
Answer: The inhibition of growth at 75 g/ha was 100%.
